How the values were obtained:
HEK293 cells [1] = assay: Transfection of pEGFP-C1 reporter plasmid into HEK293 cells, GFP expression by flow cytometry; type: cell-based, human
Method: (§1) The corresponding cationic lipid (1 mM in methanol) were mixed in different proportions with DOPE (10 mg/mL in chloroform) and the organic solvent removed by evaporation in an oven (37° C.) overnight. The resultant thin films were then hydrated with PBS. The solutions were vortexed (10-20 s) and incubated at ambient temperature for 20 min. Plasmid DNA or siRNA solution (0.04 mg/mL in PBS or another isotonic solution) was subsequently added and the solution vortexed (10-20 s). The lipoplexes were incubated at room temperature for 20 min before being used.
(§2) Human HeLa cells were grown in RPMI supplemented with 4 mM glutamine, 10% FCS and 100 units/ml penicillin/streptomycin (RPMI-CM) until 80% confluence. HEK293 and B16F10 cells were grown in DMEM supplemented with 4 mM glutamine, 10% FCS and 100 units/ml penicillin/streptomycin (DMEM-CM) until 80% confluence. Cells were then suspended using trypsin/EDTA and counted. 2×10^4 cells in 150 μL of media per well were seeded in 96 well plates and incubated overnight. The day afterwards, the different lipoplex formulations were added. Each experiment was performed in quadruplicate, using Effectene® Transfection Reagent (Qiagen), Lipofectamine™ 2000 (Invitrogen) and Fugene (Roche) as positive controls and untreated cells as negative controls. After two days incubation at 37° C. and 5% CO2 (the change of media after transfection was not necessary), the green fluorescent protein (GFP) expression, as a consequence of transfecting the pEGFP-C1, was evidenced using a fluorescent microscope (Leica) and measured by flow cytometry. For the flow cytometry analysis, cells were washed twice with PBS, detached with trypsin/EDTA, harvested with 2% ferum bovine serum (FBS) in PBS, centrifuged and resuspended with 2% FBS in PBS and analyzed using a BD FACSaria flow cytometer. Transfection efficiency was measured as percentage of transfected cells.
(§3) Reagents that obtained greater than 50% transfection were also analyzed against HEK293 and B16F10 cell lines. Transfection results (+ percentages of transfection between 5-25%; ++ percentages of transfection between 25-50%; N.D. not determined). MTT toxicity assay results are indicated between brackets with 100% being cell viability of untreated cells.

HeLa cells [2] = assay: Transfection of pEGFP-C1 reporter plasmid into HeLa cells, GFP expression by flow cytometry; type: cell-based, human; details: for Transfection efficiency (percentage of transfected cells), HeLa / Transfection results (percentage of transfected cells), HeLa: HeLa cells 48 h after transfection with reporter plasmid, flow cytometry; for Transfection compared with the positive controls: N/P ratio 3, 1:1 mol mixture with DOPE, controls Effectene, Lipofectamine 2000, Fugene
Method: as §1, §2, §3

HEK293 cells [3] = assay: MTT cell viability assay of transfected HEK293 cells; type: cell-based, human; details: 100% being cell viability of untreated cells; 24 h after addition of transfection agents
Method: as §3
(§4) Twenty-four hours after the addition of transfection agents, cell viability was measured using an MTT cell proliferation assay (LGC Promochem, Middlesex, UK), which was performed according to the manufacturer's instructions. Absorbance was read at 570 nm. […] The comparative data obtained with lipids 28a, 29a, 30a and 31a of the invention, Lipofectamine™ 2000, Fugene and Effectene® Transfection Reagent are shown between brackets in Table 2.

B16F10 cells [4] = assay: MTT cell viability assay of transfected B16F10 cells; type: cell-based, mouse; details: 100% being cell viability of untreated cells; 24 h after addition of transfection agents
Method: as §3, §4

HeLa cells [5] = assay: Transfection of fluorescein-labelled siRNA (siGLO) into HeLa cells, flow cytometry; type: cell-based, human; details: 24 h incubation
Method: as §1
Cells were suspended using trypsin/EDTA and counted. 2×10^4 cells in 150 μL of RPMI-CM per well were seeded in 96-well plates and incubated overnight. The day afterwards, the different lipoplex formulations formulated with siGLO (fluorescein-labeled siRNA that localizes within cell nuclei (Dharmacon)) and added to the cells. […] After 24 h incubation at 37° C. and 5% CO2 (change of media after transfection was not necessary), the green fluorescence emitted by intracellular siGLO was imaged under microscope. […] For the flow cytometry analysis, cells were washed twice with PBS, detached with trypsin/EDTA, harvested with 2% FBS in PBS, centrifuged and resuspended with 2% FBS in PBS and analyzed using a BD FACSaria flow cytometer.

mice = assay: In vivo transfection of luciferase-expressing plasmid (pLux) in mice, luminescence imaging
Method: Experiments were performed to transfect a luciferase-expressing plasmid (pLux) by intravenous injection via the vein tail of mice: three transfected with pLux complexed with compound 29a and three (control) with naked pLux. Two days after instillation, firefly luciferin was administrated intraperitoneally and the mice imaged using an IVIS Spectrum.
The mouse depicted on the left was transfected with naked plasmid; the mouse the right was transfected with plasmid complexed with compound 29a. Mice (n=3, per experiment) were anaesthetised and intubated following standard protocols. 16 μg of a luciferase-reporter plasmid were used per mouse. […] Firefly luciferin (15 mg/kg) was administered intraperitoneally to the anesthetized mice 15 min before scanning for luminescence. Imaging was performed on the IVIS Spectrum (Caliper LS) with large binning, open filter for 10 min.

B16F10 cells [6] = assay: Transfection of pEGFP-C1 reporter plasmid into B16F10 cells, GFP expression by flow cytometry; type: cell-based, mouse
Method: as §1, §2, §3

HeLa cells [7] = assay: MTT cell viability assay of transfected HeLa cells; type: cell-based, human; details: 100% being cell viability of untreated cells; 24 h after addition of transfection agents
Method: as §3, §4

Row | Compound | Transfection efficiency (percentage of transfected cells), HEK293 (HEK293 cells [1]) [%] | Transfection efficiency (percentage of transfected cells), HeLa (HeLa cells [2]) [%] | Transfection compared with the positive controls (HeLa cells [2]) | MTT toxicity assay, cell viability (between brackets), HEK293 (HEK293 cells [3]) [%] | MTT toxicity assay, cell viability (between brackets), B16F10 (B16F10 cells [4]) [%] | Cells fluorescently labelled after siRNA transfection (HeLa cells [5]) | Behaviour of mice during the study (mice; mice monitored on a daily basis, n=3 per experiment) | Luminescence after in vivo transfection of pLux (mice; mice, intravenous injection via tail vein, 16 μg plasmid per mouse, imaged 48 hours after transfection) | Location of highest luminescence signal (mice; mice, intravenous injection via tail vein, 48 hours after transfection) | Transfection efficiency (percentage of transfected cells), B16F10 (B16F10 cells [6]) [%] | MTT toxicity assay, cell viability (between brackets), HeLa (HeLa cells [7]) [%] | Transfection results (percentage of transfected cells), HeLa (HeLa cells [2])
1 | CCCCCCCCCCCCCCCC(=O)NCCN(CCNC(=O)CCCCCCCCCCCCCCC)C(=O)/C=C\C(=O)N[C@@H](CCCNC(=N)N)C(=O)N[C@@H](CCCNC(=N)N)C(N)=O.O=C(O)C(F)(F)F.O=C(O)C(F)(F)F [Compound A2-Sp2-P] | 90 | 86 | more effectively than the positive controls | 98 | 99 | over 96% | behaved normally | Positive luminescence was detected | at the point of injection | 78 | 99 | 
2 | CCCCCCCCCCCCCCCC(=O)NCCN(CCNC(=O)CCCCCCCCCCCCCCC)C(=O)CCC(=O)N[C@@H](CCCNC(=N)N)C(=O)N[C@@H](CCCNC(=N)N)C(N)=O.O=C(O)C(F)(F)F.O=C(O)C(F)(F)F [Compound A2-Sp1-P] | 89 | 85 | more effectively than the positive controls | 97 | 98 |  |  |  |  | 74 | 99 | 
3 | CCCCCCCCCCCCCCCC(=O)NCCN(CCNC(=O)CCCCCCCCCCCCCCC)C(=O)/C=C\C(=O)N[C@@H](CCCNC(=N)N)C(=O)N[C@@H](CCCNC(=N)N)C(=O)N[C@@H](CCCNC(=N)N)C(N)=O.O=C(O)C(F)(F)F.O=C(O)C(F)(F)F.O=C(O)C(F)(F)F [Compound A3-Sp2-P] | 80 | 70 |  | 96 | 93 |  |  |  |  | 69 | 92 | 
4 | CCCCCCCC/C=C\CCCCCCCC(=O)NCCN(CCNC(=O)CCCCCCC/C=C\CCCCCCCC)C(=O)CCC(=O)N[C@@H](CCCNC(=N)N)C(N)=O.O=C(O)C(F)(F)F [Compound A1-Sp1-O] |  |  |  |  |  |  |  |  |  |  |  | + (percentages of transfection between 5-25%)
5 | CCCCCCCCCCCCCCCCCC(=O)NCCCN(CCCNC(=O)CCCCCCCCCCCCCCCCC)C(=O)CCC(=O)N[C@@H](CCCNC(=N)N)C(=O)N[C@@H](CCCNC(=N)N)C(N)=O.O=C(O)C(F)(F)F.O=C(O)C(F)(F)F [Compound A2-Sp3-S] |  |  |  |  |  |  |  |  |  |  |  | + (percentages of transfection between 5-25%)
6 | CCCCCCCCCCCCCCCC(=O)NCCN(CCNC(=O)CCCCCCCCCCCCCCC)C(=O)CCC(=O)N[C@@H](CCCNC(=N)N)C(=O)N[C@@H](CCCNC(=N)N)C(=O)N[C@@H](CCCNC(=N)N)C(N)=O.O=C(O)C(F)(F)F.O=C(O)C(F)(F)F.O=C(O)C(F)(F)F [Compound A3-Sp1-P] | 84 | 75 |  | 95 | 89 |  |  |  |  | 56 | 93 | 
7 | CCCCCCCCCCCCCCCCCC(=O)NCCCN(CCCNC(=O)CCCCCCCCCCCCCCCCC)C(=O)/C=C\C(=O)N[C@@H](CCCNC(=N)N)C(=O)N[C@@H](CCCNC(=N)N)C(=O)N[C@@H](CCCNC(=N)N)C(N)=O.O=C(O)C(F)(F)F.O=C(O)C(F)(F)F.O=C(O)C(F)(F)F [Compound A3-Sp4-S] |  |  |  |  |  |  |  |  |  |  |  | + (percentages of transfection between 5-25%)
